Tests used:
[1] = test system: in vitro eye lens of rabbits; experiment: resisting oxidative damage to in vitro eye lens of rabbits induced by H2O2 (lens opacification grading); format: cell-based; settings: rabbit lens; for Observation Results + (number of lenses with mild opacity, degree I) / Observation Results ++ (number of lenses with moderate opacity, degree II) / Percentages for different degrees % + Degree (I) / Percentages for different degrees % >++ Degrees(I, II) / Observation Results +++ (number of lenses totally opacified, degree III) / Comments (improvement versus model group): 2% H2O2 + 0.02% FeCl3, 24 h culture, sample and BDL 0.5 mmol/L; for Observation Results + (number of lenses with mild opacity, degree I) / Observation Results ++ (number of lenses with moderate opacity, degree II) / Percentages for different degrees % + Degree (I) / Percentages for different degrees % >++ Degrees(I, II) / Observation Results +++ (number of lenses totally opacified, degree III): vitamin C 1 mmol/L; for inhibitory effects on oxidative damage to in vitro eye lens of rabbits induced by H2O2: sample 0.5 mmol/L, table 1
Description: (§1) Some typical compounds are selected for the research on the capability of in vitro resisting oxidative damage to crystalline lens induced by H2O2. The experiments are illustrated as follows:
(§2) Kill rats and rabbits, take out their eyeballs and rinse with saline containing 500 u/mL penicillin, split the eyeball from the posterior to remove eyeball wall and vitreous body, strip off the suspensory ligament, take out the crystalline lens and wash with PBS solution containing 500 u/mL penicillin and 0.5 mg/mL streptomycin for 5 min Before experiment, check with anatomical lens to confirm that there is no opacification or other abnormal condition in the crystalline lens, then place the crystalline lens in the sterilized 12-well plate containing 2 mL DMEM/high glucose (a product from Beijing Thermo Fisher Scientific Biochemical Product Co., Ltd.) sterile culture solution (which contains 100 u/mL penicillin and 0.1 mg/mL streptomycin), add different compounds for screening and pre-culture in a incubator with temperature of 37° C., humidity of 95% and 5% CO2 for 1 h, subsequently add 2 mL DEME culture solution containing H2O2 and FeCl3 (namely, total 4 mL culture solution in each well) (the total concentration of H2O2 in each well is 2% for rabbits, and 5% for rats, and the concentrations of FeCl3 are all 0.02%), culture under the same conditions for 24 hours. The experiments are divided into several groups as below and carried out in batches, with each batch provided with negative control group and model group.
(§3) A. Negative control group: DMEM culture solution without H2O2.
(§4) B. Model group (oxidative damage group): DMEM culture solution containing H2O2 and FeCl3.
(§5) C. Vitamin C group: besides the ingredients of the model group, further containing vitamin C (the final concentration is 1 mmol/L).
(§6) D. Bendazac lysine (BDL) group (BDL is provided by Zhejiang Shapuaisi Pharmaceutical Co. Ltd., and its purity is more than 98.5%): besides the ingredients of model group, further containing BDL (the final concentration is 0.5 mmol/L).
(§7) E. Sample group: besides the ingredients of model group, further containing sample (the final concentration is 0.5 mmol/L).
(§8) Evaluation criteria: according to large amount of experiments on the model group, the ratio between the percentage of different degrees of lens opacification in the groups and the percentage of different degrees of lens opacification in the model group is utilized as the definition, wherein, for slight improvement (√), the percentage of ++ (degrees II, III) should be lower than 67%, and the percentage of + (degree I) should be higher than 33%; for moderate improvement (√√), the percentage of ++(degrees II, III) further decreases; and the percentage of 0 (−) appears; for significant improvement (√√√), the percentage of ++ (degrees II, III) and + (degree I) disappears, and the lens are almost transparent.

[2] = test system: in vitro eye lens of rats; experiment: resisting oxidative damage to in vitro eye lens of rats induced by H2O2 (lens opacification grading); format: cell-based; settings: rat lens; for Comments (improvement versus model group) / Observation Results + (number of lenses with mild opacity, degree I) / Observation Results ++ (number of lenses with moderate opacity, degree II) / Percentages % + Degree (I) / Percentages % >++ Degrees (II, III) / Observation Results +++ (number of lenses totally opacified, degree III): 5% H2O2 + 0.02% FeCl3, 24 h culture, sample and BDL 0.5 mmol/L; for Observation Results + (number of lenses with mild opacity, degree I) / Observation Results ++ (number of lenses with moderate opacity, degree II) / Percentages % + Degree (I) / Percentages % >++ Degrees (II, III) / Observation Results +++ (number of lenses totally opacified, degree III): vitamin C 1 mmol/L; for inhibitory effects on oxidative damage to in vitro eye lens of rats induced by H2O2: sample 0.5 mmol/L, summary of table 2
Description: as §1, §2, §3, §4, §5, §6, §7
as §8, with “lens turbidity” for “lens opacification”, “than 72%,” for “than 67%,”, “than 20%;” for “than 33%;”, “improvement (√√)” for “improvement (√√),”, “and +(degree” for “and + (degree”

Compound	Observation Results + (number of lenses with mild opacity, degree I) [1]	Observation Results ++ (number of lenses with moderate opacity, degree II) [1]	Percentages for different degrees % + Degree (I) [1]	Percentages for different degrees % >++ Degrees(I, II) [1]	inhibitory effects on oxidative damage to in vitro eye lens of rabbits induced by H2O2 [1]	Comments (improvement versus model group) [2]	Observation Results + (number of lenses with mild opacity, degree I) [2]	Observation Results ++ (number of lenses with moderate opacity, degree II) [2]	Percentages % + Degree (I) [2]	Percentages % >++ Degrees (II, III) [2]	inhibitory effects on oxidative damage to in vitro eye lens of rats induced by H2O2 [2]	Observation Results +++ (number of lenses totally opacified, degree III) [1]	Observation Results +++ (number of lenses totally opacified, degree III) [2]	Comments (improvement versus model group) [1]
O=C([O-])C(Oc1nn(Cc2ccccc2)c2ccccc12)C(=O)[O-].[Na+].[Na+] [Y1, 2-(1-benzyl-1H-indazole-3-oxyl) malonate disodium]	4	3	57%	43%	not significant	✓	4	1	80%	20%	showing inhibitory effects	–	–	–
O=C1O[C@H]([C@@H](O)CO)C(O)=C1O [VC, vitamin C, reference compound]	13	16	42%	58%	–	–	7	8	39%	61%	–	2	3	–
N[C@@H](Cc1c[nH]cn1)C(=O)O.N[C@@H](Cc1c[nH]cn1)C(=O)O.O=C(O)C(Oc1nn(Cc2ccccc2)c2ccccc12)C(=O)O [Y4, 2-(1-benzyl-1H-indazole-3-oxyl) malonate dihistidine]	14	7	67%	33%	showing inhibitory effects	✓	18	3	86%	14%	showing inhibitory effects	–	–	✓
NCCCC[C@H](N)C(=O)O.NCCCC[C@H](N)C(=O)O.O=C(O)C(Oc1nn(Cc2ccccc2)c2ccccc12)C(=O)O [Y5, 2-(1-benzyl-1H-indazole-3-oxyl) malonate dilysine]	2	2	33%	67%	not significant	–	1	4	17%	83%	showing inhibitory effects	2	1	–
O=C([O-])C(Oc1nn(Cc2ccccc2)c2ccccc12)C(=O)[O-].[K+].[K+] [Y2, 2-(1-benzyl-1H-indazole-3-oxyl) malonate dipotassium]	2	3	29%	71%	not significant	–	–	3	–	100%	not significant	2	3	–
NCCCC[C@H](N)C(=O)O.NCCCC[C@H](N)C(=O)O.O=C(O)C(Oc1nn(Cc2cccc(Cl)c2)c2ccccc12)C(=O)O [Y19, 2-[1-(3-chloro-benzyl)-1H-indazole-3-oxyl]malonate dilysine]	–	–	–	100%	not significant	✓	18	10	56%	44%	showing inhibitory effects	3	4	–
NCCCC[C@H](N)C(=O)O.NCCCC[C@H](N)C(=O)O.O=C(O)C(Oc1nn(Cc2cccc(F)c2)c2ccccc12)C(=O)O [Y14, 2-[1-(3-fluoro-benzyl)-1H-indazole-3-oxyl) malonate dilysine]	–	–	–	–	–	✓	10	8	56%	44%	showing inhibitory effects	–	–	–
O=C(O)COc1nn(Cc2ccccc2)c2ccccc12 [BDL, Bendazac lysine, reference compound]	9	3	75%	25%	–	✓	30	22	54%	46%	–	–	3	✓
O=C([O-])C(Oc1nn(Cc2cccc(F)c2)c2ccccc12)C(=O)[O-].[Na+].[Na+] [Y10, 2-[1-(3-fluoro-benzyl)-1H-indazole-3-oxyl) malonate disodium]	4	1	80%	20%	showing inhibitory effects	✓	47	28	60%	40%	not significant	–	3	✓
